The values below come from ChEMBL document CHEMBL5725974, “ASK1 inhibitor compounds and uses thereof” (2018).

This assay has as its target T1, Mitogen-activated protein kinase kinase kinase 5 (Homo sapiens, UniProt Q99683).
T1 sequence (Q99683 whole entry): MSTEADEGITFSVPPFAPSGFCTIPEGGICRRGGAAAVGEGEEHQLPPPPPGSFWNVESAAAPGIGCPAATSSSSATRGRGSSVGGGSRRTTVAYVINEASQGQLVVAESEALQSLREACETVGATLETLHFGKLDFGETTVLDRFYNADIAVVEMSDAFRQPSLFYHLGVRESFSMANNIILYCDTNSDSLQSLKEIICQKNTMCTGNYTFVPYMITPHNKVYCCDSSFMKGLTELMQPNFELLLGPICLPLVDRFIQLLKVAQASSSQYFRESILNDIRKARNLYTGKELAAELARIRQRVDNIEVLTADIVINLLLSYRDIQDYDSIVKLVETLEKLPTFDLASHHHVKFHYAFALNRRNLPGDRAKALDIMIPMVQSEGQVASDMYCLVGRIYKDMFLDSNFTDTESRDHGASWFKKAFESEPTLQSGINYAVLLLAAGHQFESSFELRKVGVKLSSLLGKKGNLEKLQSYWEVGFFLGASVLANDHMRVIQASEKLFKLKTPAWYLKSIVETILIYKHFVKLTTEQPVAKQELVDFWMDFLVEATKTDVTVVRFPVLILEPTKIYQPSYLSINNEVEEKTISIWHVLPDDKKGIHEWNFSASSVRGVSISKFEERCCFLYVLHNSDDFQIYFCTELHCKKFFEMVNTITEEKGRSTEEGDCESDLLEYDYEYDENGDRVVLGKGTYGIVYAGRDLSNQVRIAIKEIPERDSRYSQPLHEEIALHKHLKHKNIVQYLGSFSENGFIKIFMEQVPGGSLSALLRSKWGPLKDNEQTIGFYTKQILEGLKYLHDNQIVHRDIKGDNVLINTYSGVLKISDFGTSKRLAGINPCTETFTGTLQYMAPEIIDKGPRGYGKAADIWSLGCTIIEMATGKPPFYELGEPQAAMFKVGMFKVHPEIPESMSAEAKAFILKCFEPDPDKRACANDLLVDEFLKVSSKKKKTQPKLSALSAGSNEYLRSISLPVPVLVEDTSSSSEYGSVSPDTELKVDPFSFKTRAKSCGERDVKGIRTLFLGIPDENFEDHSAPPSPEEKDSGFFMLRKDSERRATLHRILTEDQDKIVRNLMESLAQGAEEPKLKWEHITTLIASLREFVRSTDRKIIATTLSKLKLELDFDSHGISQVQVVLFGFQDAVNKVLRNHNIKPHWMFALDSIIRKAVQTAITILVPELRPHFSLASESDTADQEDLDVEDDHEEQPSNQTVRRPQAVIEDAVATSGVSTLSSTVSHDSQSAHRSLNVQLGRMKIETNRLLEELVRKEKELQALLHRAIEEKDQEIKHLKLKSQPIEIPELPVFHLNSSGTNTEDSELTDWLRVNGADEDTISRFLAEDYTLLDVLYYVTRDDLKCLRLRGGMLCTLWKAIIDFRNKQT
Kind of assay: ASK1 Kinase Assay: The ASK1 enzymatic assay was run following Promega ASK1 Kinase Enzyme System (Cat #V3881). The kit provides the protocol, enzymes and all reagents necessary to run an assay. Firstly, the compounds, enzyme, substrate and ATP were diluted in provided assay buffer. The final concentration of the enzyme was 50 nM, substrate (Myelin basic protein) 1 μg/ml and ATP 10 μM. The compound and the enzyme were pre-incubated in a 384 well white solid bottom plate (Greiner, Cat#784075) for 10 minutes. After incubation, the substrate and ATP were added and incubated for further 60 minutes. After 60 minutes, ADP-Glo™ was added and plate was incubated for another 40 minutes. After 40 minutes, Kinase Detection Reagent was added and the plate was incubated for 45 minutes. After 45 minutes, plate was read on Perkin Elmer EnVision using luminescence read (0.5 seconds/well).

In the case of `O=C(NC1CC1)c1ccc2c(c1)CN(c1cccc(-c3nncn3C3CC3)n1)C2=O`, the IC50 – broadly, the concentration that inhibits the measured activity by half – was less than 200 nM.
